Test results from patent US20160113911A1, “METHODS AND COMPOSITIONS FOR THE TREATMENT OF CANCER” (THE GENERAL HOSPITAL CORPORATION, priority 2013, published 2016).
Numbering of substitutions follows the chain as printed. Names and notes keep the numbering of the source.

Key:
KDM4A = KDM4A protein levels by western blot; format: cell-based, human; conditions: 293T cells, fractionated in presence of NEM
Experimental: Western blot analyses were performed according to (Black et al., 2010).
Western blots were performed as in (Black et al., 2010). Briefly, adherent cells were either scraped directly into PBS, or washed with PBS, trypsinized and collected by centrifuging at 2,000 RPM for 5 minutes. For preparation of whole-cell lysates, cell pellets were washed once in ice-cold PBS and resuspended in RIPA lysis buffer [50 mM Tris pH 7.4, 150 mM NaCl, 0.25% Sodium Deoxycholate, 1% NP40, 1 mM EDTA, 10% Glycerol] supplemented with complete protease inhibitor and PhosSTOP™ phosphatase inhibitor cocktails (Roche). Cells were lysed on ice for 15 minutes and immediately frozen at −80° C. for 10 min. Lysates were subsequently sonicated at 70% amplitude for 15 minutes in a QSonica Q800R™ and cleared of cell debris by centrifuging at 12,000 RPM for 15 minutes, before being analyzed by western blotting. For HIF1α expression, adherent cells were washed twice with ice-cold PBS and scraped directly in warmed 1× Laemmli buffer. Samples were sonicated at 70% amplitude for 15 minutes and boiled immediately prior to western blotting.

HEK 293T cells = assay: Monitored cell proliferation assay (xCELLigence growth curves, doubling time); format: cell-based, human
Experimental: Seventy two hours post transfection 1×10^4 HEK 293T cells were seeded per well of a 96 well plate, and then treated after 24h. Cell proliferation was monitored with an xCELLigence system (Roche) (Vistejnova et al., 2009).

[1] = test system: 1q12h copy gain in RPE cells; assay: FISH for site-specific copy gain; format: cell-based, human; conditions: for hypoxia-dependent copy gain of 1q12h / hypoxia-induced 1q12h copy number gains / KDM4A-dependent 1q12h copy gain upon co-expression: RPE cells; for hypoxia-dependent copy gain of 1q12h: 1% O2 24 hours, JIB-04 62.5 nM or 2 mM succinate pre-treatment, or overexpression; for hypoxia-induced 1q12h copy number gains: 4% oxygen, transfection or 2 mM succinate for 24 hours; for KDM4A-dependent 1q12h copy gain upon co-expression: transient transfection 24 hours
Experimental: FISH was performed as described in (Manning et al., 2010). Probes for 1q12h, 1q telomere, and chromosome 2, 6, 8, and X alpha satellite were purchased from Rainbow Scientific. Probes for 1q12 (RP11-80L2), Xq13.2 (RP11-451A22), Xq13.1 (RP11-177A4) were purchased as BAC clones from Children's Hospital Oakland Research Institute (CHORI BacPac) FISH verified clone repository. Oligonucleotide probes for 1q21.2 (BCL9) and 1q23.3 were purchased from Agilent (SureFISH). BACS were prepared utilizing PureLink HiPure Plasmid Filter Maxiprep kit (Life Technologies) using the recommended modified wash buffer. Probes were nick translated (Abbot Molecular Kit) in the presence of fluorescently labeled dTTP (Enzo Life Science). Images of multiple planes of fields of nuclei were acquired on an Olympus IX81 Spinning Disk Microscope and analyzed using Slidebook 5.0 software. We used a conservative scoring metric for copy gain. Any foci that were touching were scored as a single foci to prevent increased numbers due to normally replicated foci. For RPE cells, copy gain was scored as any cell with 3 or more distinct foci. For 293T cells, copy gain was scored for any cell with 5 or more distinct foci. For RPE cells each experiment includes at least one replicate from the two different polyclonal stable cell preparations. At least 100 cells for each replicate were scored for all experiments except analysis of single cell clones.
Cells were plated onto culture dishes and allowed to adhere for 20-24 hrs in normoxia (5% CO2, 21% O2, and 74% N2). For hypoxic treatment, cells were maintained in a HERA Cell 150™ incubator (Thermo Scientific) flushed with 5% CO2, 1% O2 or 4% O2, and balanced with N2 for the duration of the experiment. Incubator calibrations were carried out by Bianchi Associates Calibrations/Verifications.
To release, cells were washed twice with culture medium pre-conditioned in normoxia or hypoxia, and supplied with fresh pre-conditioned media. For JIB-04 treatment, normoxic cells were pre-treated with 62.5 nM JIB-04 (Xcessbio) for 24 hrs, then treated again with JIB-04 and either transferred to 1% O2 or maintained in normoxia for an additional 24 hrs. Succinate was administered at a final concentration of 2 mM and cells were either maintained in normoxia for 72 hrs or maintained in normoxia for 48 hrs prior to being transferred to 1% O2 for 24 hrs.
FISH was performed as described in (Black et al., 2013; Manning et al., 2010). Probes for 1q12h, 1q telomere, chromosome 8 centromere (alpha satellite), and X centromere (alpha satellite) were purchased from Rainbow Scientific. Probes for Xq13.1 (RP11-177A4), Zebrafish BCL9 (CH73-15J19) and Zebrafish IGBP1 (CH73-223D24) were purchased as BAC clones from Children's Hospital Oakland Research Institute (CHORI BacPac) clone repository. Probes for 1q21.2 (BCL9) and 1q23.3 were purchased from Agilent (SureFISH).
FISH was performed as described in (Black et al., 2013; Manning et al., 2010). Probes for 1q12h, 1q telomere, chromosome 8 centromere (alpha satellite), and X centromere (alpha satellite) were purchased from Rainbow Scientific. Probes for Xq13.1 (RP11-177A4), Zebrafish BCL9 (CH73-15J19) and Zebrafish IGBP1 (CH73-223D24) were purchased as BAC clones from Children's Hospital Oakland Research Institute (CHORI BacPac) clone repository. Probes for 1q21.2 (BCL9) and 1q23.3 were purchased from Agilent (SureFISH). BACS were prepared utilizing PureLink HiPure™ Plasmid Filter Maxiprep kit (Life Technologies) using the recommended modified wash buffer. Probes were nick translated (Abbot Molecular Kit) in the presence of fluorescently labeled dTTP (Enzo Life Science). Images of multiple planes of fields of nuclei were acquired on an Olympus IX81 T Spinning Disk Microscope and analyzed using Slidebook™ 5.0 software. A conservative scoring metric was used for copy gain. Any foci that were touching were scored as a single copy to prevent increased numbers due to normally replicated foci.

H3K36me3 = assay: H3K36 demethylase activity of KDM4A variants in transfected cells (immunofluorescence); format: cell-based; parameters: key: + indicates active; − indicates inactive; +/− indicates partial acitivty; conditions: KDM4A mutations
Experimental: The indicated NHF-tagged KDM4A deletion constructs were transfected into RPE cells grown on coverslips in 10 cm dishes using X-tremeGENE 9™ DNA transfection reagent (Roche). H3K36me3 and subcellular localization were assayed by examining transfected cells (positive for HA staining; HA.11 Covance) following fixation in 3.7% PFA in PBS (Whetstine et al., 2006).
All immunofluorescence experiments were performed as in (Black et al., 2013). For the localization experiment a minimum of 50 cells were blinded and scored. For the catalytic activity, cells overexpressing a high level of KDM4A WT or SNP-A482 were analyzed in a non quantitative manner.

H3K9me3 = assay: H3K9 demethylase activity of KDM4 variants in transfected cells; format: cell-based; parameters: key: + indicates active; − indicates inactive; +/− indicates partial acitivty; conditions: KDM4A mutations

CCN1C(=O)C=CC1=O [NEM]
hypoxia-induced changes in KDM4A levels and/or localization (KDM4A; 1% O2 6h): reduced | KDM4A chromatin association (KDM4A): alters the chromatin association

CCCS(=O)(=O)Nc1ccc(F)c(C(=O)c2c[nH]c3ncc(Cl)cc23)c1F [PLX-4720]
drug sensitivity of KDM4A shRNA cells vs control vector (growth curves, doubling time) (HEK 293T cells; HEK293T, PLX-4720): more sensitive

O=C1NC(=NCc2cccs2)S/C1=C\c1ccc2ncccc2c1 [R03306, reference compound]
1q12h copy number in KDM4A overexpressing cells upon arrest ([1]; stable GFP-KDM4A RPE cells, arrested 20 hours): failed to display increased copy number of 1q12h

C[C@@H]1C[C@@H]([C@H](O)CC2CC(=O)NC(=O)C2)C(=O)[C@@H](C)C1 [Cycloheximide]
cell growth vs DMSO, KDM4A shRNA cells (HEK 293T cells; HEK293T KDM4A shRNA, 30 nM): slow growth | cell growth vs DMSO, control vector cells (HEK 293T cells; HEK293T control vector, 30 nM): do not slow growth

HP1γ: H3K9me3 binding protein, overexpressed by transfection
hypoxia-dependent copy gain of 1q12h [1]: able to abrogate hypoxic induction of site-specific copy gain | hypoxia-induced 1q12h copy number gains [1]: antagonized | KDM4A-dependent 1q12h copy gain upon co-expression [1]: significantly reduced the number of KDM4A overexpressing cells with altered copy number of 1q12h

B1: Suv39H1: H3K9me3 methyltransferase, overexpressed by transfection (protein, UniProt O43463 1-412, looked up)
Histone-lysine …: MAENLKGCSVCCKSSWNQLQDLCRLAKLSCPALGISKRNLYDFEVEYLCDYKKIREQEYYLVKWRGYPDSESTWEPRQNLKCVRILKQFHKDLERELLRRHHRSKTPRHLDPSLANYLVQKAKQRRALRRWEQELNAKRSHLGRITVENEVDLDGPPRAFVYINEYRVGEGITLNQVAVGCECQDCLWAPTGGCCPGASLHKFAYNDQGQVRLRAGLPIYECNSRCRCGYDCPNRVVQKGIRYDLCIFRTDDGRGWGVRTLEKIRKNSFVMEYVGEIITSEEAERRGQIYDRQGATYLFDLDYVEDVYTVDAAYYGNISHFVNHSCDPNLQVYNVFIDNLDERLPRIAFFATRTIRAGEELTFDYNMQVDPVDMESTRMDSNFGLAGLPGSPKKRVRIECKCGTESCRKYLF
modifications: Halo tag
notes: H3K9me3 methyltransferase, overexpressed by transfection
hypoxia-dependent copy gain of 1q12h [1]: able to abrogate hypoxic induction of site-specific copy gain | hypoxia-induced 1q12h copy number gains [1]: antagonized | KDM4A-dependent 1q12h copy gain upon co-expression [1]: sufficient to abrogate KDM4A-dependent 1q12h copy gain

B2: 2A-E23K: KDM4A mutation (protein)
chain: MASESETLNPSARIMTFYPTMEKFRNFSRYIAYIESQGAHRAGLAKVVPPKEWKPRASYDDIDDLVIPAPIQQLVTGQSGLFTQYNIQKKAMTVREFRKIANSDKYCTPRYSEFEELERKYWKNLTFNPPIYGADVNGTLYEKHVDEWNIGRLRTILDLVEKESGITIEGVNTPYLYFGMWKTSFAWHTEDMDLYSINYLHFGEPKSWYSVPPEHGKRLERLAKGFFPGSAQSCEAFLRHKMTLISPLMLKKYGIPFDKVTQEAGEFMITFPYGYHAGFNHGFNCAESTNFATRRWIEYGKQAVLCSCRKDMVKISMDVFVRKFQPERYKLWKAGKDNTVIDHTLPTPEAAEFLKESELPPRAGNEEECPEEDMEGVEDGEEGDLKTSLAKHRIGTKRHRVCLEIPQEVSQSELFPKEDLSSEQYEMTECPAALAPVRPTHSSVRQVEDGLTFPDYSDSTEVKFEELKNVKLEEEDEEEEQAAAALDLSVNPASVGGRLVFSGSKKKSSSSLGSGSSRDSISSDSETSEPLSCRAQGQTGVLTVHSYAKGDGRVTVGEPCTRKKGSAARSFSERELAEVADEYMFSLEENKKSKGRRQPLSKLPRHHPLVLQECVSDDETSEQLTPEEEAEETEAWAKPLSQLWQNRPPNFEAEKEFNETMAQQAPHCAVCMIFQTYHQVEFGGFNQNCGNASDLAPQKQRTKPLIPEMCFTSTGCSTDINLSTPYLEEDGTSILVSCKKCSVRVHASCYGVPPAKASEDWMCSRCSANALEEDCCLCSLRGGALQRANDDRWVHVSCAVAILEARFVNIAERSPVDVSKIPLPRFKLKCIFCKKRRKRTAGCCVQCSHGRCPTAFHVSCAQAAGVMMQPDDWPFVVFITCFRHKIPNLERAKGALQSITAGQKVISKHKNGRFYQCEVVRLTTETFYEVNFDDGSFSDNLYPEDIVSQDCLQFGPPAEGEVVQVRWTDGQVYGAKFVASHPIQMYQVEFEDGSQLVVKRDDVYTLDEELPKRVKSRLSVASDMRFNEIFTEKEVKQEKKRQRVINSRYREDYIEPALYRAIME
H3k36 Demethylase Activity (H3K36me3): + | H3k9 Demethylase Activity (H3K9me3): +

B3: 2A-S28N: KDM4A mutation (protein)
chain: B2 chain with K23E, S28N
H3k36 Demethylase Activity (H3K36me3): + | H3k9 Demethylase Activity (H3K9me3): +
